Results taken from ChEMBL document CHEMBL1201862, “PubChem BioAssay data set” (2004).
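48-hour exposure; five concentrations; linearly interpolated endpoints. GI50 = concentration required for 50% inhibition of growth.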 Active and inactive are the calls of the source. Cut-off read from the data, not from the text of the source: active = GI50 up to about 1.1 µM and inactive = higher.

What was measured:
Assay in all cases: NCI tumour cell line growth inhibition, 48 h
SK-MEL-5 = test system: SK-MEL-5
TK-10 = test system: TK-10
RXF 393 = test system: RXF 393
K562 = test system: K562
PC-3 = test system: PC-3
UO-31 = test system: UO-31
EKVX = test system: EKVX
HL-60 = test system: HL-60
A549 = test system: A549
Malme-3M = test system: Malme-3M
SF-295 = test system: SF-295
SK-OV-3 = test system: SK-OV-3
SN12C = test system: SN12C
LOX IMVI = test system: LOX IMVI
NCI-H23 = test system: NCI-H23
CAKI-1 = test system: CAKI-1
HCT-15 = test system: HCT-15
SK-MEL-28 = test system: SK-MEL-28
SR = test system: SR
A498 = test system: A498

Row | Compound | GI50 (SK-MEL-5) | GI50 (TK-10) | GI50 (RXF 393) | GI50 (K562) | GI50 (PC-3) | GI50 (UO-31) | GI50 (EKVX) | GI50 (HL-60) | GI50 (A549) | GI50 (Malme-3M) | GI50 (SF-295) | GI50 (SK-OV-3) | GI50 (SN12C) | GI50 (LOX IMVI) | GI50 (NCI-H23) | GI50 (CAKI-1) | GI50 (HCT-15) | GI50 (SK-MEL-28) | GI50 (SR) | GI50 (A498)
1 | COc1cc(/C=N/c2nc3cc4sc(/N=C/c5cc(OC)c(OC)c(OC)c5)nc4cc3s2)cc(OC)c1OC | 37.1 µM (inactive) | > 100 µM (inactive) | > 100 µM (inactive) | 50.1 µM (inactive) | 52.1 µM (inactive) | 62.8 µM (inactive) | 42 µM (inactive) | 57.1 µM (inactive) | 40.5 µM (inactive) | > 100 µM (inactive) | 56.8 µM (inactive) | > 100 µM (inactive) | 43 µM (inactive) | 42.9 µM (inactive) | 56.1 µM (inactive) | > 100 µM (inactive) | 55.2 µM | 21.7 µM (inactive) | 21.7 µM (inactive) | > 100 µM (inactive)
2 | COc1cc(OC2OC(COC(=O)c3cc(O)c(O)c(O)c3)C(O)C(O)C2O)ccc1O (stereo not given) | > 100 µM (inactive) | 76.7 µM (inactive) | > 100 µM (inactive) | 32.7 µM (inactive) | 26.2 µM (inactive) | 33.2 µM (inactive) | > 100 µM (inactive) | 93.1 µM (inactive) | > 100 µM (inactive) | > 100 µM (inactive) | 78.7 µM (inactive) | – | 77.8 µM (inactive) | 29.5 µM (inactive) | > 100 µM (inactive) | 69.2 µM (inactive) | > 100 µM | > 100 µM (inactive) | > 100 µM (inactive) | > 100 µM (inactive)
3 | C/C=C(/C)C(=O)O[C@H]1C(C)=C[C@]23C(=O)[C@@H](C=C(COC(C)=O)[C@@H](O)[C@]12O)[C@H]1[C@@H](C[C@H]3C)[C@@]1(C)OC(=O)/C(C)=C\C | 0.307 µM (active) | 2.72 µM (inactive) | 2.65 µM (inactive) | 0.0205 µM (active) | 1.4 µM (inactive) | 0.442 µM (active) | 2.9 µM (inactive) | 0.094 µM (active) | 0.15 µM (active) | 0.111 µM (active) | 1.08 µM (active) | 4.19 µM (inactive) | 1.69 µM (inactive) | 3.1 µM (inactive) | 2.42 µM (inactive) | 2.75 µM (inactive) | 2.96 µM | 3.69 µM (inactive) | 2.67 µM (inactive) | 2.72 µM (inactive)
4 | CNC(=S)NN=C1NCCCCN1 | > 100 µM (inactive) | > 100 µM (inactive) | > 100 µM (inactive) | > 100 µM (inactive) | > 100 µM (inactive) | > 100 µM (inactive) | > 100 µM (inactive) | > 100 µM (inactive) | > 100 µM (inactive) | > 100 µM (inactive) | > 100 µM (inactive) | > 100 µM (inactive) | – | > 100 µM (inactive) | > 100 µM (inactive) | 29.2 µM (inactive) | > 100 µM | > 100 µM (inactive) | > 100 µM (inactive) | > 100 µM (inactive)
5 | O=C(c1ccccc1)c1ccc2[nH]c(-c3c(Cl)c(Cl)c(Cl)c(Cl)c3-c3nnc(-c4ccccc4)o3)nc2c1 | 6.7 µM (inactive) | 51.1 µM (inactive) | 5.47 µM (inactive) | 4.67 µM (inactive) | 20.7 µM (inactive) | 49.3 µM (inactive) | 54.1 µM (inactive) | 11.5 µM (inactive) | 25.8 µM (inactive) | 17.9 µM (inactive) | 14.1 µM (inactive) | 50.8 µM (inactive) | 22.4 µM (inactive) | 39.4 µM (inactive) | 31.7 µM (inactive) | 40.4 µM (inactive) | 7.01 µM | > 100 µM (inactive) | 4.06 µM (inactive) | 12.1 µM (inactive)
6 | Ic1cccc(/C=C/CN2CCN(CCOC(c3ccccc3)c3ccccc3)CC2)c1 | 14.3 µM (inactive) | 16.1 µM (inactive) | 10.7 µM (inactive) | 4.62 µM (inactive) | 17.5 µM (inactive) | 13 µM (inactive) | 17.7 µM (inactive) | 8.91 µM (inactive) | 17.5 µM (inactive) | 18.9 µM (inactive) | 17.5 µM (inactive) | 21.6 µM (inactive) | 13.9 µM (inactive) | 13.2 µM (inactive) | 16.2 µM (inactive) | 17.5 µM (inactive) | 14.2 µM | 20.8 µM (inactive) | 4.16 µM (inactive) | 16.7 µM (inactive)
7 | OC1C2[C@@H](O)CCCN2C[C@@H](O)[C@H]1O (stereo not given in full) | > 100 µM (inactive) | > 100 µM (inactive) | > 100 µM (inactive) | > 100 µM (inactive) | > 100 µM (inactive) | > 100 µM (inactive) | > 100 µM (inactive) | > 100 µM (inactive) | > 100 µM (inactive) | > 100 µM (inactive) | > 100 µM (inactive) | > 100 µM (inactive) | > 100 µM (inactive) | > 100 µM (inactive) | > 100 µM (inactive) | > 100 µM (inactive) | > 100 µM | > 100 µM (inactive) | > 100 µM (inactive) | > 100 µM (inactive)
8 | Cc1ccc(Nc2nc(C)c(C(=O)CC(=O)C(=O)Nc3ccc(Cl)cc3)s2)cc1 | > 100 µM (inactive) | > 100 µM (inactive) | > 100 µM (inactive) | > 100 µM (inactive) | > 100 µM (inactive) | > 100 µM (inactive) | > 100 µM (inactive) | > 100 µM (inactive) | > 100 µM (inactive) | 76.6 µM (inactive) | > 100 µM (inactive) | > 100 µM (inactive) | > 100 µM (inactive) | > 100 µM (inactive) | > 100 µM (inactive) | > 100 µM (inactive) | > 100 µM | > 100 µM (inactive) | > 100 µM (inactive) | > 100 µM (inactive)
9 | O=C(C(Cl)=C(N1CCCCC1)N1CCCCC1)C(Cl)Cl | > 100 µM (inactive) | > 100 µM (inactive) | > 100 µM (inactive) | > 100 µM (inactive) | > 100 µM (inactive) | > 100 µM (inactive) | > 100 µM (inactive) | > 100 µM (inactive) | > 100 µM (inactive) | > 100 µM (inactive) | > 100 µM (inactive) | > 100 µM (inactive) | > 100 µM (inactive) | > 100 µM (inactive) | > 100 µM (inactive) | 21.4 µM (inactive) | > 100 µM | > 100 µM (inactive) | > 100 µM (inactive) | > 100 µM (inactive)
10 | COC(=O)NC1C(C)OC(OC2C/C=C(/C)C3C=CC4C(OC5CC(OC6CCC(OC7CC(O)C(OC8CCC(O)C(C)O8)C(C)O7)C(C)O6)C(OC(C)=O)C(C)O5)C(C)CC(C)C4C3(C)/C(O)=C3/C(=O)OC4(CC(C=O)=CC(O)C4/C=C\2C)C3=O)CC1(C)[N+](=O)[O-] (stereo not given) | 0.82 µM (active) | 1.61 µM (inactive) | 0.551 µM (active) | 0.885 µM (active) | 1.57 µM (inactive) | 1.68 µM (inactive) | 1.85 µM (inactive) | 1.24 µM (inactive) | 1.77 µM (inactive) | 0.421 µM (active) | 0.993 µM (active) | 2.44 µM (inactive) | 0.964 µM (active) | 0.397 µM (active) | 0.774 µM (active) | 2.49 µM (inactive) | 0.832 µM | 0.403 µM (active) | 0.857 µM (active) | 0.668 µM (active)
11 | C[C@@]1(c2ccccc2)O[C@@H]2C[C@H]3[C@@H]4CCC5=CC(=O)C=C[C@]5(C)[C@@]4(F)[C@@H](O)C[C@]3(C)[C@]2(C(=O)CO)O1 [AMCINAFIDE] | 14.9 µM (inactive) | 19.5 µM (inactive) | 20.1 µM (inactive) | 12.5 µM (inactive) | 16 µM (inactive) | 18.1 µM (inactive) | 12.4 µM (inactive) | 18.8 µM (inactive) | 11.8 µM (inactive) | 13.8 µM (inactive) | 16.7 µM (inactive) | – | 12.9 µM (inactive) | 23.8 µM (inactive) | 18.1 µM (inactive) | 23.3 µM (inactive) | 17.9 µM | 16.3 µM (inactive) | 19.3 µM (inactive) | 18 µM (inactive)
12 | CN1CCC2(c3ccccc3)CC(=O)/C(=C/c3ccc(Cl)c(Cl)c3)C1C2.[O-][Cl+3]([O-])([O-])O (stereo not given) | 2.6 µM (inactive) | 3.71 µM (inactive) | 2.61 µM (inactive) | 2.52 µM (inactive) | 1.96 µM (inactive) | 1.95 µM (inactive) | 2.94 µM (inactive) | 0.333 µM (active) | 3.4 µM (inactive) | 11.5 µM (inactive) | 2.43 µM (inactive) | 4.05 µM (inactive) | 1.85 µM (inactive) | 1.71 µM (inactive) | 2.86 µM (inactive) | 3.94 µM (inactive) | 2.14 µM | 2.1 µM (inactive) | 0.968 µM (active) | 5.2 µM (inactive)
13 | COc1ccc(C2=C3SC=c4ccccc4=C3ON=C2c2ccccc2)cc1 | > 100 µM (inactive) | > 100 µM (inactive) | > 100 µM (inactive) | 22.9 µM (inactive) | > 100 µM (inactive) | > 100 µM (inactive) | > 100 µM (inactive) | > 100 µM (inactive) | > 100 µM (inactive) | > 100 µM (inactive) | > 100 µM (inactive) | – | > 100 µM (inactive) | > 100 µM (inactive) | > 100 µM (inactive) | > 100 µM (inactive) | > 100 µM | > 100 µM (inactive) | 42 µM (inactive) | > 100 µM (inactive)
14 | CC1(C)OC2C(O)C(CO)OC2(C(F)F)O1 (stereo not given) | > 85.3 µM (inactive) | > 100 µM (inactive) | > 100 µM (inactive) | > 100 µM (inactive) | > 100 µM (inactive) | > 31.3 µM (inactive) | > 100 µM (inactive) | > 100 µM (inactive) | > 100 µM (inactive) | > 100 µM (inactive) | > 100 µM (inactive) | > 100 µM (inactive) | > 100 µM (inactive) | > 100 µM (inactive) | – | > 100 µM (inactive) | > 100 µM | > 100 µM (inactive) | > 100 µM (inactive) | > 100 µM (inactive)
